Test systems include 786-0 renal; HCC-2998 colon; HCT-116 colon; HOP-92 NSCLC; HS 578T breast; M14 melanoma; MDA-MB-231 breast; MDA-N; NCI/ADR-RES ovarian; OVCAR-3 ovarian; PC-3 prostate; SF-539 CNS; SN12C renal; SNB-75 CNS; UACC-257 melanoma; UACC-62 melanoma.
Holding throughout (assay): DTP human tumour cell line panel, 48 h

SMILES strings stand for the structures.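 Cultured in 96-well plates, cells were exposed to test compound for 48 hours across five concentrations. The concentration for full growth arrest is given as TGI.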

For `O=C(O)c1nc(-c2ccccn2)c(-c2ccccn2)nc1C(=O)O`, the TGI with 786-0 renal is 13.2 µM; in the assay on HCC-2998 colon it was 3.45 µM; in the assay on HCT-116 colon, 5.6 µM; in the assay on HOP-92 NSCLC, 26.9 µM; in the assay with HS 578T breast it was over 72.6 µM; in the assay on M14 melanoma it was 3.59 µM. Further, the TGI with MDA-MB-231 breast was 30.5 µM; in the assay with MDA-N, 29.2 µM; with NCI/ADR-RES ovarian it was over 23.1 µM; with OVCAR-3 ovarian, 12.4 µM; in the assay on PC-3 prostate it was 20.9 µM; with SF-539 CNS, 20.6 µM. Further, the TGI with SN12C renal amounted to 24.6 µM; in the assay with SNB-75 CNS it was 11.6 µM; in the assay on UACC-257 melanoma, 16.4 µM; with UACC-62 melanoma, 6.27 µM.

With `COc1cccc(OC)c1/C=C1\OC(=O)c2cccc(OC)c21`, the total growth inhibition concentration (TGI) is over 100 µM in the assay with 786-0 renal; over 100 µM with HCC-2998 colon; over 100 µM in the assay on HCT-116 colon; over 63 µM with HOP-92 NSCLC; 26.7 µM with HS 578T breast; over 58.9 µM with M14 melanoma. Further, the TGI is over 100 µM with MDA-MB-231 breast; 3.32 µM in the assay on MDA-N; over 100 µM with NCI/ADR-RES ovarian; 13.5 µM in the assay with OVCAR-3 ovarian; over 100 µM in the assay on PC-3 prostate; 6.21 µM in the assay on SF-539 CNS. Further, the TGI is over 100 µM in the assay on SN12C renal, 17.9 µM with SNB-75 CNS, over 100 µM in the assay on UACC-257 melanoma and over 31 µM with UACC-62 melanoma.

`CCN(CC)c1ccc2cc(-c3nnc(-c4ccccc4)o3)c(=O)oc2c1`: the TGI with 786-0 renal was over 82.1 µM; in the assay on HCC-2998 colon it was over 46.3 µM; in the assay with HCT-116 colon, over 100 µM; in the assay with HOP-92 NSCLC it was over 100 µM; in the assay with HS 578T breast it was over 100 µM; in the assay on M14 melanoma it was over 100 µM. The TGI was over 77.9 µM in the assay with MDA-MB-231 breast; over 100 µM in the assay with MDA-N; over 100 µM with NCI/ADR-RES ovarian; 37.1 µM in the assay on OVCAR-3 ovarian; over 100 µM in the assay with PC-3 prostate; over 37.5 µM with SF-539 CNS. Besides, the TGI in the assay with SN12C renal was over 100 µM; in the assay on SNB-75 CNS, 69 µM; in the assay on UACC-257 melanoma, over 100 µM; in the assay with UACC-62 melanoma, over 100 µM.

As to `N#CSc1nc[nH]c1C(N)=O`, the concentration for total growth inhibition (TGI) in the assay with 786-0 renal is 98.8 µM; in the assay with HCC-2998 colon it was over 100 µM; with HCT-116 colon it was over 100 µM; in the assay with HOP-92 NSCLC, over 100 µM; in the assay with HS 578T breast it was over 100 µM; in the assay on M14 melanoma, over 100 µM. Further, the TGI in the assay with MDA-MB-231 breast, in the assay with MDA-N, in the assay on NCI/ADR-RES ovarian, with OVCAR-3 ovarian, with PC-3 prostate and in the assay with SF-539 CNS was over 100 µM in each case. Moreover, the TGI with SN12C renal is 90 µM; with SNB-75 CNS, over 100 µM; in the assay on UACC-257 melanoma, over 100 µM; with UACC-62 melanoma it was over 100 µM.

On to `C#CCn1ncc2c(SCc3ccccc3)ncnc21`, for which the TGI with 786-0 renal, with HCC-2998 colon, in the assay with HCT-116 colon, in the assay on HOP-92 NSCLC, in the assay with HS 578T breast and in the assay on M14 melanoma was over 100 µM in each case. Further, the TGI in the assay on MDA-MB-231 breast, in the assay on MDA-N, in the assay on NCI/ADR-RES ovarian, with OVCAR-3 ovarian, in the assay with PC-3 prostate and in the assay on SF-539 CNS was over 100 µM each time. In addition, the TGI with SN12C renal, with SNB-75 CNS, in the assay with UACC-257 melanoma and with UACC-62 melanoma was over 100 µM in each case.

Values taken from PubChem BioAssay (NCI).
